# From patent publication US10577315B2, “Compositions and methods for treatment of prostate carcinoma” (Pellficure Pharmaceuticals, Inc., priority 2014, dated 2020)
# Columns and labels:
# Assay type in all cases: cell-based
# [1] = system: PTEN-P2/GFP prostate cancer cells; assay: Effect of 1,4-naphthoquinone analogs on PTEN-P2/GFP cell proliferation (WST-1 cell viability, 24 h); conditions: Mus musculus, WST-1, medium with 10% FBS and DHT, read-out: PTEN-P2/GFP cell proliferation, percent of control
# Procedure: Cells are grown in phenol red-free DMEM medium containing 10% FBS, 2 mM L-glutamine, 100 U/ml penicillin/100 μg/ml streptomycin, insulin-selenium-transferrin (5 μg/ml insulin), and DHT 10^−8M final. Androgen withdrawal is achieved by not adding DHT to the medium. Cells are maintained in a humidified incubator at 37° C. and 5% CO2. G418 (100 μg/ml) is added to maintain stable expression of H2B-GFP.
# (§1) 100 microliters of PTEN-P2/GFP prostate cancer cells were plated at a density of 8000 cells/well in 96-well plates (triplicates) in growing medium containing 10% Fetal Bovine Serum and DHT. The next day, increasing concentrations of a 1,4-naphthoquinone analog (diluted from 10 mM DMSO stock solutions) were added. DMSO used as solvent for all analogs, was kept constant through the 96-well plates. The control consisted of DMSO alone. The cells were subsequently incubated for 24 hours at 37° C. and 5% CO2 in normal cell growth conditions. Cell viability was assessed by adding 9 μL/well of WST-1 reagent (Clontech), which measured mitochondrial activity of live cells. […] The incubation time was 3 hours at 37° C. Optical density of the cell samples was measured at 460 nm, by using plate reader Spectra Max 250 (Molecular Devices). The drug was determined to be cytotoxic when OD values show an inverse correlation with analog concentrations. The results are shown in TABLES 3.1-3.4, FIGS. 2A-2E, and FIGS. 3A-3D.
# [2] = system: human breast cancer SKBR-3 cells; assay: Dose response of 1,4-naphthoquinone analogs in human breast cancer cells SKBR-3 (WST-1, 24 h)
# Procedure: as §1, with “human breast” for “PTEN-P2/GFP prostate”, “cancer SKBR-3” for “cancer”, “Serum, penicillin/streptomycin,” for “Serum”, “glutamine.” for “DHT.”, “concentrations.” for “concentrations. The results are shown in TABLES 3.1-3.4, FIGS. 2A-2E, and FIGS. 3A-3D.”
# [3] = system: human fibrosarcoma HT1080 cells; assay: Dose response of 1,4-naphthoquinone analogs in human fibrosarcoma cells HT1080 (WST-1, 24 h)
# Procedure: as §1, with “human fibrosarcoma HT1080” for “PTEN-P2/GFP prostate cancer”, “Serum, penicillin/streptomycin,” for “Serum”, “glutamine.” for “DHT.”, “concentrations.” for “concentrations. The results are shown in TABLES 3.1-3.4, FIGS. 2A-2E, and FIGS. 3A-3D.”
SMILES,activity at 2 µM [1],activity at 3 µM [1],activity at 4 µM [1],activity at 5 µM [1],activity at 6 µM [1],activity at 7 µM [1],activity at 10 µM [1],activity at 15 µM [1],activity at 25 µM [1],also measured
"CC(=O)Nc1ccc(OC2=CC(=O)c3ccccc3C2=O)cc1 [Analog F03, 2-(4-acetamidophenoxy)-1,4-naphthoquinone]",97.8%,97.1%,97.1%,97.1%,85%,76.2%,43%,20%,9.61%,"human SKBR-3 cell proliferation, percent of control ([2]; 1.2 μM): 88.89% of control; human SKBR-3 cell proliferation, percent of control ([2]; 2.5 μM): 87.44% of control; human SKBR-3 cell proliferation, percent of control ([2]; 5 μM): 64.41% of control; human SKBR-3 cell proliferation, percent of control ([2]; 7.5 μM): 36.88% of control; human SKBR-3 cell proliferation, percent of control ([2]; 10 μM): 7.32% of control; human SKBR-3 cell proliferation, percent of control ([2]; 15 μM): 1.24% of control; human SKBR-3 cell proliferation, percent of control ([2]; 20 μM): 1.57% of control; proliferation of human fibrosarcoma HT1080 cells, percent of control ([3]; 1.2 μM): 81.33% of control; proliferation of human fibrosarcoma HT1080 cells, percent of control ([3]; 2.5 μM): 85.67% of control; proliferation of human fibrosarcoma HT1080 cells, percent of control ([3]; 5 μM): 74.59% of control; proliferation of human fibrosarcoma HT1080 cells, percent of control ([3]; 7.5 μM): 72.11% of control; proliferation of human fibrosarcoma HT1080 cells, percent of control ([3]; 10 μM): 75.09% of control; proliferation of human fibrosarcoma HT1080 cells, percent of control ([3]; 15 μM): 55.37% of control; proliferation of human fibrosarcoma HT1080 cells, percent of control ([3]; 20 μM): 38.21% of control"
"O=C1C=C(Oc2ccc([N+](=O)[O-])cc2)C(=O)c2ccccc21 [Analog F12, 2-(4-nitrophenoxy)naphthalene-1,4-dione]",–,–,–,118%,–,–,115%,78.8%,–,activity at 1.2 µM [1]: 122%; activity at 2.5 µM [1]: 118%; activity at 7.5 µM [1]: 117%; activity at 20 µM [1]: 8.27%
"CC1=CC(=O)c2c(OCCCCI)cccc2C1=O [Analog F48, 5-(4-iodobutoxy)-2-methyl-1,4-naphthoquinone]",102%,102%,102%,109%,112%,115%,103%,–,11%,activity at 1 µM [1]: 103%; activity at 50 µM [1]: 10%
"CC(=O)NC1=C(Cl)C(=O)c2ccccc2C1=O [Analog F37, 2-N-acetylamino-3-chloro-1,4-naphthoquinone]",101%,94.4%,86.6%,71.4%,55.7%,36.7%,17.6%,13.9%,13.6%,–
"CC(=O)NC1=C(Oc2ccc(OCc3ccccc3)cc2)C(=O)c2ccccc2C1=O [Analog F42, N-(3-(4-(benzyloxy)phenoxy)-1,4-dioxo-1,4-dihydronaphthalen-2-yl)acetamide]",101%,101%,97.6%,89.1%,83.8%,75.3%,37.5%,20.2%,16.6%,–
"CC(=O)NC1=C(Oc2ccc(Cl)cc2)C(=O)c2ccccc2C1=O [Analog F39, N-(3-(4-chlorophenoxy)-1,4-dioxo-1,4-dihydronaphthalen-2-yl)acetamide]",102%,82.2%,70.6%,57.5%,41.5%,29.4%,14.3%,12%,12.7%,–
"COc1ccc(OC2=C(NC(C)=O)C(=O)c3ccccc3C2=O)cc1 [Analog F41, N-(3-(4-methoxyphenoxy)-1,4-dioxo-1,4-dihydronaphthalen-2-yl)acetamide]",95.1%,89.8%,84.5%,75%,69.6%,63.9%,36.9%,13.5%,12.6%,–
"CC(=O)NC1=C(Oc2cc(F)cc(F)c2)C(=O)c2ccccc2C1=O [Analog F43, N-(3-(3,5-difluorophenoxy)-1,4-dioxo-1,4-dihydronaphthalen-2-yl)acetamide]",94.6%,88.7%,78.3%,68.4%,55.3%,45.2%,32.9%,24.7%,24.1%,–
"COc1ccc(OC)c2c1C(=O)C=CC2=O [Analog F52, 5,8-dimethoxy-1,4-naphthoquinone]",108%,112%,113%,111%,106%,93.3%,52.1%,–,11.2%,activity at 1 µM [1]: 106%; activity at 50 µM [1]: 11.9%
"O=C1C(Oc2ccc(O)cc2)=C(Oc2ccc(O)cc2)C(=O)c2ccccc21 [Analog F24, 2,3-bis(4-hydroxyphenoxy)-1,4-naphthoquinone]",–,–,–,57.6%,–,–,8.07%,6.73%,–,activity at 1.2 µM [1]: 111%; activity at 2.5 µM [1]: 87.1%; activity at 7.5 µM [1]: 30.9%; activity at 20 µM [1]: 3.73%
"CN(C)CCc1ccc(OC2=CC(=O)c3ccccc3C2=O)cc1 [Analog F11, 2-(4-(2-dimethylaminoethyl)phenoxy)-1,4-naphthoquinone]",99.6%,93.4%,79.2%,61.3%,46%,36.4%,22.8%,12.3%,9.33%,–
"O=C1C=C(Oc2ccc(O)cc2)C(=O)c2ccccc21 [Analog F10, 2-(4-hydroxyphenoxy)-1,4-naphthoquinone]",98.6%,95.4%,91.2%,82.8%,67.1%,53.6%,25.2%,16.7%,17.6%,–
"O=C1C=C(Oc2cc(F)cc(F)c2)C(=O)c2ccccc21 [Analog F17, 2-(3,5-difluorophenoxy)naphthalene-1,4-dione]",–,–,–,88.7%,–,–,71.5%,1.07%,–,activity at 1.2 µM [1]: 97%; activity at 2.5 µM [1]: 91.8%; activity at 7.5 µM [1]: 78.2%; activity at 20 µM [1]: 2.53%
